The test system of one assay is Jurkat. Kind of assay: Inhibition of antigen-stimulated IL-2 production in human Jurkat cells expressing MART-1 antigen specific TCR. In kind it is functional, cell-based.
The target in assay [1] is T1, Tyrosine-protein kinase Lck (Homo sapiens, UniProt P06239). Kind of assay: Inhibition of Lck.
Assay [2] addresses T1, Tyrosine-protein kinase Lck. As to the kind of experiment: Inhibition of Lck kinase activity.

Broadly, the IC50 is the midpoint of a concentration-inhibition curve. Low readings indicate greater potency, high ones weaker potency.

Molecules are shown by their SMILES.

T1 sequence (P06239 whole entry): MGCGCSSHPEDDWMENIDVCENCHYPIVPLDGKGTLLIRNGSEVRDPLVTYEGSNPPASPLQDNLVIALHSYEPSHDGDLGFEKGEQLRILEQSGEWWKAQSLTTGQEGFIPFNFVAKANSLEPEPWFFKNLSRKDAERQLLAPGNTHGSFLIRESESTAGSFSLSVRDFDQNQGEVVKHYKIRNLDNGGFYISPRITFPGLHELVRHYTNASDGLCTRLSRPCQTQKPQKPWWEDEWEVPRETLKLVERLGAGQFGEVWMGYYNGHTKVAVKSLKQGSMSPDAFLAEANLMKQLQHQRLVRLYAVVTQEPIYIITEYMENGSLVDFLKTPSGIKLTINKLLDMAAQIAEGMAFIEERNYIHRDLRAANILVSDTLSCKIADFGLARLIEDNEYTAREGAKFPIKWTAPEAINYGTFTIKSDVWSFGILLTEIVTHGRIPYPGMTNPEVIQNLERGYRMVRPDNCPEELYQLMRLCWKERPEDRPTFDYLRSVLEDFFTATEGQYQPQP

`C[C@H](Nc1nccc(-n2cnc3cc(-c4ccncc4)ccc32)n1)[C@@H]1CN(C(=O)Nc2cccc3ccccc23)CCN1C`: the half-maximal inhibitory concentration (IC50) in the assay with Jurkat (Homo sapiens, Jurkat) amounted to 8 nM; in assay [1] it was 0.12 nM.

On to `CCCCCCN1CCN(C(=O)Nc2cccc3ccccc23)C[C@H]1[C@H](C)Nc1nccc(-n2cnc3ccccc32)n1`, for which the IC50 with Jurkat (Homo sapiens, Jurkat) was > 1000 nM; in assay [1], 1.8 nM.

In the case of `O=C(OCc1ccccc1)N1CCCC(CNc2nccc(-n3cnc4ccccc43)n2)C1` (centres undefined), the IC50 in assay [1] amounted to 650 nM.

For `CC(Nc1nccc(-n2cnc3ccccc32)n1)C1CN(C(=O)Nc2cccc3ccccc23)CCN1C` (single isomer, unassigned; diastereomer 2), the concentration for half-maximal inhibition (IC50) was > 1000 nM with Jurkat (jurkat) and 17.4 nM in assay [1].

As for `CC(Nc1nccc(-n2cnc3ccccc32)n1)C1CNCCN1C` (centres undefined), the IC50 with Jurkat (Homo sapiens, Jurkat) is > 10000 nM; in assay [1] it was > 1000 nM.

For the molecule `CC(Nc1nccc(-n2cnc3ccccc32)n1)C1CN(S(C)(=O)=O)CCN1C` (centres undefined), the IC50 in the assay with Jurkat (Homo sapiens, Jurkat) was > 1000 nM; in assay [1], 22.5 nM.

With `CC(=O)N1CCN(C(=O)Nc2cccc3ccccc23)C[C@H]1[C@H](C)Nc1nccc(-n2cnc3ccccc32)n1`, the IC50 with Jurkat (Homo sapiens, Jurkat) was > 10000 nM; in assay [1], 115 nM.

Consider `CC(C)CN1CCN(C(=O)Nc2cccc3ccccc23)C[C@H]1[C@H](C)Nc1nccc(-n2cnc3ccccc32)n1`, for which the half-maximal inhibitory concentration (IC50) was found to be 538 nM with Jurkat (Homo sapiens, Jurkat) and 0.2 nM in assay [1].

Consider `CCN1CCN(C(=O)Nc2cccc3ccccc23)C[C@H]1[C@H](C)Nc1nccc(-n2cnc3ccccc32)n1`, for which the 50% inhibitory concentration (IC50) with Jurkat (Homo sapiens, Jurkat) stood at 154 nM; in assay [1], 0.07 nM.

`c1ccc(CNc2nccc(-n3cnc4ccccc43)n2)cc1` returned a half-inhibitory concentration (IC50) in assay [1] of 827 nM.

On to `C[C@H](Nc1nccc(-n2cnc3cc(-c4ccncc4)ccc32)n1)c1ccccc1`, for which the 50% inhibitory concentration (IC50) in the assay on Jurkat (Homo sapiens, Jurkat) stood at 98 nM; in assay [1], 3 nM.

As to `CC(Nc1nccc(-n2cnc3ccccc32)n1)C1CN(C(=O)Nc2cccc3ccccc23)CCN1Cc1ccccc1` (centres undefined), the half-inhibitory concentration (IC50) with Jurkat (Homo sapiens, Jurkat) was > 1000 nM; in assay [1] it was 2.6 nM.

Regarding `C[C@H](Nc1nccc(-n2cnc3ccccc32)n1)C1CCCCC1`, the 50% inhibitory concentration (IC50) in assay [1] is 243 nM. This lies in the sub-micromolar range.

For the molecule `CCN1CCN(c2ccc3c(c2)ncn3-c2ccnc(N[C@@H](C)c3ccccc3)n2)C1=O`, the IC50 in the assay on Jurkat (Homo sapiens, Jurkat) was determined as 167 nM; in assay [1] it was 1 nM.

Consider `CC(Nc1nccc(-n2cnc3ccccc32)n1)C1CN(C(=O)Nc2cccc3ccccc23)CCN1S(=O)(=O)c1ccccc1` (centres undefined), for which the IC50 in the assay on Jurkat (Homo sapiens, Jurkat) is > 10000 nM; in assay [1], 26.5 nM.

`Cc1ccc2ncn(-c3ccnc(N[C@@H](C)c4ccccc4)n3)c2c1`: the IC50 in assay [2] and in assay [1] was 58 nM each time.

In the case of `CC(Nc1nccc(-n2cnc3ccccc32)n1)C1CN(C(=O)Nc2cccc3ccccc23)CCN1C` (single isomer, unassigned; diastereomer 1), the half-inhibitory concentration (IC50) in the assay on Jurkat (jurkat) was determined as 361 nM; in assay [1] it was 0.25 nM.

As for `CN1CCN(C(=O)c2ccc3ccccc3c2)CC1CNc1nccc(-n2cnc3ccccc32)n1` (centres undefined), it took 10 nM to reach half-maximal inhibition in assay [1] (IC50). This lies in the double-digit nanomolar range.

`O=C(Nc1cccc2ccccc12)N1CCNC(CNc2nccc(-n3cnc4ccccc43)n2)C1` (centres undefined) displayed an IC50 in assay [1] of 110 nM. This IC50 lies about 11-fold higher than the previous one.

Molecule `C[C@H](Nc1nccc(-n2cnc3ccccc32)n1)c1ccccc1` registered a 50% inhibitory concentration (IC50) in assay [1] of 153 nM. The IC50 values of the last two molecules are within 1.5-fold of each other.

Turning to `CC(Nc1nccc(-n2cnc3ccccc32)n1)C1CN(C(=O)Nc2cccc3ccccc23)CCN1C(=O)OCc1ccccc1` (centres undefined), the IC50 in the assay on Jurkat (Homo sapiens, Jurkat) was > 10000 nM; in assay [1], > 1000 nM.

Regarding `C[C@H](Nc1nccc(-n2cnc3ccccc32)n1)[C@@H]1CN(C(=O)Nc2cccc3ccccc23)CCN1C`, the half-maximal inhibitory concentration (IC50) in the assay with Jurkat (Homo sapiens, Jurkat) came to 111 nM; in assay [1], 0.06 nM.

As for `C[C@H](Nc1nccc(-n2cnc3cc(-c4ccnc(N)n4)ccc32)n1)c1ccccc1`, the half-inhibitory concentration (IC50) with Jurkat (Homo sapiens, Jurkat) was found to be 111 nM; in assay [1] it was 1.5 nM.

For the molecule `Cc1cc2ncn(-c3ccnc(N[C@@H](C)c4ccccc4)n3)c2cc1C`, the IC50 in assay [2] and in assay [1] was 2070 nM throughout.

For `CC(Nc1nccc(-n2cnc3ccccc32)n1)C1CN(Cc2ccccc2)CCN1C` (centres undefined), the IC50 in the assay on Jurkat (Homo sapiens, Jurkat) is > 10000 nM; in assay [1] it was 501 nM.

For `CC(Nc1nccc(-n2cnc3ccccc32)n1)C1CCCN(C(=O)Nc2ccccc2)C1` (centres undefined), the midpoint of inhibition in assay [1], the IC50, lay at 11 nM.

On to `C[C@H](Nc1nccc(-n2cnc3ccccc32)n1)c1cccc([N+](=O)[O-])c1`, for which the half-inhibitory concentration (IC50) in assay [1] was 47 nM.

In the case of `Cc1ccc2c(c1)ncn2-c1ccnc(N[C@@H](C)c2ccccc2)n1`, the IC50 in assay [2] and in assay [1] was 128 nM throughout.

Regarding `CC(Nc1nccc(-n2cnc3ccccc32)n1)C1CCCN(C(=O)Cc2ccccc2)C1` (centres undefined), the IC50 in assay [1] was 800 nM.

Turning to `CC(Nc1nccc(-n2cnc3ccccc32)n1)C1CN(C(=O)Nc2ccc3ccccc3c2)CCN1C` (centres undefined), the 50% inhibitory concentration (IC50) was > 1000 nM in the assay on Jurkat (Homo sapiens, Jurkat) and 75.2 nM in assay [1].

Take `CC(Nc1nccc(-n2cnc3ccccc32)n1)C1CCCN(C(=O)Oc2ccccc2)C1` (centres undefined): in assay [1], the midpoint of inhibition, the IC50, lay at 46 nM.

In the case of `CNC(=O)N1CCCC(C(C)Nc2nccc(-n3cnc4ccccc43)n2)C1` (centres undefined), the IC50 in assay [1] came out at 242 nM.

As for `C[C@H](Nc1nccc(-n2cnc3ccccc32)n1)[C@@H]1CN(C(=O)Nc2cccc3ccccc23)CCN1c1ccncc1`, the IC50 came to 546 nM with Jurkat (Homo sapiens, Jurkat) and 0.2 nM in assay [1].

For `C[C@H](Nc1nccc(-n2cnc3cc(-c4ccnc(N)n4)ccc32)n1)[C@@H]1CN(C(=O)Nc2cccc3ccccc23)CCN1C`, the half-inhibitory concentration (IC50) worked out at 16 nM in the assay on Jurkat (Homo sapiens, Jurkat) and 0.07 nM in assay [1].

With `C[C@@H](Nc1nccc(-n2cnc3ccccc32)n1)c1ccccc1`, inhibition in assay [1] was half-maximal at 1770 nM (IC50).

For `CCN1CCN(c2ccc3c(c2)ncn3-c2ccnc(N[C@@H](C)[C@@H]3CN(C(=O)Nc4cccc5ccccc45)CCN3C)n2)C1=O`, the IC50 in the assay on Jurkat (Homo sapiens, Jurkat) is 42 nM; in assay [1], 0.4 nM.

The molecule `CC(Nc1nccc(-n2cnc3ccccc32)n1)C1CCCN(C(=O)NC2CCCCC2)C1` (centres undefined) showed an IC50 in assay [1] of 1260 nM.

Consider `CC(Nc1nccc(-n2cnc3ccccc32)n1)C1CCCN(C(=O)Nc2cccc3ccccc23)C1` (racemic), for which, in assay [1], the IC50 came out at 1 nM. This IC50 is about 1300-fold lower than that of the molecule before.

Consider `O=C(Nc1cccc2ccccc12)N1CCC(CNc2nccc(-n3cnc4ccccc43)n2)C1` (centres undefined), for which the IC50 in assay [1] was > 10000 nM.

On to `O=C(c1ccc2ccccc2c1)N1CCCC(CNc2nccc(-n3cnc4ccccc43)n2)C1` (centres undefined), for which half-maximal inhibition in assay [1] (IC50) was put at 106 nM.

`CC(Nc1nccc(-n2cnc3ccccc32)n1)C1CCCN(C(=O)OCc2ccccc2)C1` (stereo in doubt; 12a) yielded an IC50 in assay [1] of 144 nM.

As to `O=C(OCc1ccccc1)N1CCCCC1CNc1nccc(-n2cnc3ccccc32)n1` (centres undefined), in assay [1], the IC50 was > 20000 nM.

For `CC(Nc1nccc(-n2cnc3ccccc32)n1)C1CN(C)CCN1C` (centres undefined), the IC50 with Jurkat (Homo sapiens, Jurkat) is > 10000 nM; in assay [1], > 1000 nM.

As to `CCOC(=O)CN1CCN(C(=O)Nc2cccc3ccccc23)C[C@H]1[C@H](C)Nc1nccc(-n2cnc3ccccc32)n1`, the IC50 in the assay on Jurkat (Homo sapiens, Jurkat) amounted to 847 nM; in assay [1], 0.45 nM.

As to `CC(Nc1nccc(-n2cnc3ccccc32)n1)C1CCCN(C(=O)Nc2ccc3ccccc3c2)C1` (centres undefined), in assay [1], it took 40 nM to reach half-maximal inhibition (IC50). This lies in the double-digit nanomolar range.

Turning to `O=C(c1ccc2ccccc2c1)N1CCOC(CNc2nccc(-n3cnc4ccccc43)n2)C1` (centres undefined), in assay [1], inhibition was half-maximal at 203 nM (IC50).

On to `CC(Nc1nccc(-n2cnc3ccccc32)n1)C1CCCN(C(=O)OCc2ccccc2)C1` (stereo in doubt; 12b), for which, in assay [1], the IC50 amounted to 2720 nM.

As for `CC(Nc1nccc(-n2cnc3ccccc32)n1)C1CN(C(=O)Nc2cccc3ccccc23)CCN1S(C)(=O)=O` (centres undefined), the concentration for half-maximal inhibition (IC50) was > 1000 nM with Jurkat (Homo sapiens, Jurkat) and 11.8 nM in assay [1].

`C[C@H](Nc1nccc(-n2cnc3ccccc32)n1)[C@H]1CCCN(C(=O)Nc2cccc3ccccc23)C1` yielded an IC50 in assay [1] of 0.4 nM.

In the case of `Cc1nc2ccccc2n1-c1ccnc(N[C@@H](C)c2ccccc2)n1`, the IC50 in assay [2] and in assay [1] was > 20000 nM throughout.

`O=C(OCc1ccccc1)N1CCC(CNc2nccc(-n3cnc4ccccc43)n2)CC1`: in assay [1], the IC50 is > 20000 nM.

For the origin of these results see ChEMBL document CHEMBL1155973, “Disubstituted pyrimidines as Lck inhibitors” (Bioorg Med Chem Lett, 2009).
